Source: patent publication US20220000911A1, “COMBINATION OF GOLD COMPLEXES WITH OLAPARIB OR OTHER PARP1/2 INHIBITORS FOR USE IN THE TREATMENT OF CANCER RESISTANT TO SAID PARP1/2 INHIBITORS” (Varsity Pharmaceuticals Limited, priority 2020, published 2022)
pIC50: −log10 of the molar value.

Experiments:
Format in all cases: cell-based
[1] = test system: olaparib resistant A2780 ovarian cancer cells; experiment: CellTiter Glo proliferation inhibition, olaparib resistant A2780 cells, single agents
Protocol: A2780 ovarian cancer cells (wild-type “WT”) were cultured in RPMI 1640 Medium with 10% Fetal Bovine Serum (FBS).
To obtain cells resistant to olaparib, the cells were cultured in cell culture medium (RPMI 1640 Medium with 10% FBS) supplemented with 20 μM olaparib for one month in order to generate A2780 cells resistant to olaparib (“R”). After a month the cells were continuously cultured in the cell culture medium (RPMI 1640 Medium with 10% FBS) supplemented with 10 μM olaparib prior to use and for up to two months to maintain the resistance.
(§1) The cells were harvested from a flask into cell culture medium (RPMI 1640 Medium with 10% FBS) and then counted. The cells were diluted with culture medium and 40 μL of cell suspension (1000 cells/well) was added into each well of a 384-well cell culture plate. The plate was covered with a lid and left at room temperature without shaking for 30 minutes. The plate was then transferred to an incubator at 37° C. and 5% CO2 and left overnight.
Test compounds were dissolved at a concentration of 30 mM in DMSO to create a stock solution. 45 μL of the stock solution was transferred to a 384 pp-plate. […] The plate was then spun at room temperature at 1,000 RPM for 1 minute. 40 nL of the diluted compound was then transferred from the compound source plate into the cell plate. The cell plate was then covered with a lid and placed in an incubator at 37° C. and 5% CO2 and left for 120 hours. 72 hours after treatment with the compound detection was conducted as discussed below.
(§2) CellTiter Glo® reagents were thawed and equilibrated to room temperature. The cell plate was then removed from the incubator and equilibrated at room temperature for 15 minutes. 30 μL of the CellTiter Glo® reagents were then added into each well (at 1:1 to culture medium). The contents was mixed for 2 minutes on an orbital shaker to induce cell lysis and then the plates were allowed to incubate at room temperature for 30 minutes. Luminescence was then measured on an Envision reader (Perkin Elmer).
The inhibition activity was calculated using the following formula:
(§3) Inhibition (%)=100×(Lumvehicle−Lumsample)/(Lumvehicle−Lumblank),
where Lumvehicle is the luminescence of cells treated with 0.1% DMSO and Lumblank is cells in the culture medium.
The IC50 was calculated by fitting the curve using Xlfit (v5.3.1.3), equation 201: […]

[2] = test system: olaparib resistant HCC1937 triple negative breast cancer cells; experiment: Proliferation inhibition of olaparib resistant HCC1937 cells, single agents
Protocol: as §1
Test compounds were dissolved at a concentration of 30 mM in DMSO to create a stock solution. 45 μL of the stock solution was transferred to a 384 pp-plate. A 3-fold, 10-point dilution was performed by transferring 15 μL of the compound solution into 30 μL DMSO by using TECAN (EVO200) liquid handler. The plate was then spun at room temperature at 1,000 RPM for 1 minute. 40 nL of the diluted compound was then transferred from the compound source plate into the cell plate. The cell plate was then covered with a lid and placed in an incubator at 37° C. and 5% CO2 and left for 120 hours. 72 hours after treatment with the compound detection was conducted as discussed below.
as §2, §3
The methods were as described in examples 1 and 2, except the HCC1937 cell line was used.
The HCC1937 cell line was established from a primary breast carcinoma from a patient with a germ-line BRCA1 mutation. It is an example of a triple-negative breast cancer (TNBC) cell line. Breast cancer patients routinely have the expression of estrogen receptor (ER), progesterone receptor (PR), and amplification of HER-2/Neu evaluated. […] The latter group is referred to as triple-negative breast cancer based on the lack of these three molecular markers. TNBC represents approximately 10-15% of all breast cancers and patients with TNBC have a poor outcome compared to the other subtypes of breast cancer.

[3] = test system: wildtype A2780 ovarian cancer cells; experiment: CellTiter Glo proliferation inhibition, wild-type A2780 cells
Protocol: The A2780 cell line is an ovarian cancer cell line that was established from an ovarian endometroid adenocarcinoma tumour. […] It is commonly used as a model to observe the effects of, and test the potency of various chemicals, methods of delivery and treatments for ovarian cancer. […] The cells were diluted with culture medium and 40 μL of cell suspension (1000 cells/well) was added into each well of a 384-well cell culture plate. The plate was covered with a lid and left at room temperature without shaking for 30 minutes. The plate was then transferred to an incubator at 37° C. and 5% CO2 and left overnight. Test compounds were dissolved at a concentration of 30 mM in DMSO to create a stock solution. 45 μL of the stock solution was transferred to a 384 pp-plate. […] The plate was then spun at room temperature at 1,000 RPM for 1 minute. 40 nL of the diluted compound was then transferred from the compound source plate into the cell plate. The cell plate was then covered with a lid and placed in an incubator at 37° C. and 5% CO2 and left for 120 hours. 72 hours after treatment with the compound detection was conducted as discussed below. CellTiter Glo® reagents were thawed and equilibrated to room temperature. The cell plate was then removed from the incubator and equilibrated at room temperature for 15 minutes. 30 μL of the CellTiter Glo® reagents were then added into each well (at 1:1 to culture medium). The contents was mixed for 2 minutes on an orbital shaker to induce cell lysis and then the plates were allowed to incubate at room temperature for 30 minutes. Luminescence was then measured on an Envision reader (Perkin Elmer). The inhibition activity was calculated using the following formula: […]

[4] = concentration range 0.06 nM to 30,000 nM

`O=C(c1cc(Cc2n[nH]c(=O)c3ccccc23)ccc1F)N1CCN(C(=O)C2CC2)CC1` [Olaparib, olaparib] was tested. Which pIC50 ([1]; Homo sapiens, A2780) did it give?
Its pIC50 is < 4.52.

And the inhibition at 0.00152 µM ([1]; Homo sapiens, olaparib resistant A2780, test conc. 1.52 nM, read-out: Mean Inhibition (n = 3))?
Its inhibition at 0.00152 µM is 1.01%.

What about the inhibition at 0.00457 µM ([1]; Homo sapiens, olaparib resistant A2780, test conc. 4.57 nM, read-out: Mean Inhibition (n = 3)) of the same molecule?
Its inhibition at 0.00457 µM is 2.74%.

And the inhibition at 0.01372 µM ([1]; Homo sapiens, olaparib resistant A2780, test conc. 13.72 nM, read-out: Mean Inhibition (n = 3))?
Its inhibition at 0.01372 µM is 1.78%.

What about the inhibition at 0.04115 µM ([1]; Homo sapiens, olaparib resistant A2780, test conc. 41.15 nM, read-out: Mean Inhibition (n = 3)) of the same molecule?
Its inhibition at 0.04115 µM is 1.43%.

What about the inhibition at 0.12346 µM ([1]; Homo sapiens, olaparib resistant A2780, test conc. 123.46 nM, read-out: Mean Inhibition (n = 3)) of the same molecule?
Its inhibition at 0.12346 µM is 5.53%.

And the inhibition at 0.37037 µM ([1]; Homo sapiens, olaparib resistant A2780, test conc. 370.37 nM, read-out: Mean Inhibition (n = 3))?
Its inhibition at 0.37037 µM is 5.11%.

And the inhibition at 10 µM ([1]; Homo sapiens, olaparib resistant A2780, test conc. 10,000 nM, read-out: Mean Inhibition (n = 3))?
Its inhibition at 10 µM is 9.9%.

What about the inhibition at 30 µM ([1]; Homo sapiens, olaparib resistant A2780, test conc. 30,000 nM, read-out: Mean Inhibition (n = 3)) of the same molecule?
The inhibition at 30 µM was 16.2%.

What about the “Maximum inhibition observed in olaparib resistant A2780 cells” value [1, 4] of the same molecule?
The value was 23%.

And the “Mean Inhibition (n = 3)” value ([1]; olaparib resistant A2780, test conc. 1,111.11 nM)?
Its value is 2.24%.

What about the “Mean Inhibition (n = 3)” value ([1]; olaparib resistant A2780, test conc. 3,333.33 nM) of the same molecule?
The value was 6.97%.

What about the inhibition at 0.00152 µM ([2]; test conc. 1.52 nM, read-out: Mean Inhibition (n = 3)) of the same molecule?
The inhibition at 0.00152 µM was -6.55%.

And the inhibition at 0.00457 µM ([2]; test conc. 4.57 nM, read-out: Mean Inhibition (n = 3))?
Its inhibition at 0.00457 µM is -1.82%.

And the inhibition at 0.01372 µM ([2]; test conc. 13.72 nM, read-out: Mean Inhibition (n = 3))?
The inhibition at 0.01372 µM was -3.47%.

What about the inhibition at 0.04115 µM ([2]; test conc. 41.15 nM, read-out: Mean Inhibition (n = 3)) of the same molecule?
Its inhibition at 0.04115 µM is -0.93%.

And the inhibition at 0.12346 µM ([2]; test conc. 123.46 nM, read-out: Mean Inhibition (n = 3))?
The inhibition at 0.12346 µM was 1.32%.

What about the inhibition at 0.37037 µM ([2]; test conc. 370.37 nM, read-out: Mean Inhibition (n = 3)) of the same molecule?
The inhibition at 0.37037 µM was 4.41%.

And the “Mean Inhibition (n = 3)” value ([2]; test conc. 1,111.11 nM)?
The value was 3.09%.

What about the “Mean Inhibition (n = 3)” value ([2]; test conc. 3,333.33 nM) of the same molecule?
The value was 4.90%.

And the inhibition at 10 µM ([2]; test conc. 10,000 nM, read-out: Mean Inhibition (n = 3))?
Its inhibition at 10 µM is 17%.

What about the inhibition at 30 µM ([2]; test conc. 30,000 nM, read-out: Mean Inhibition (n = 3)) of the same molecule?
The inhibition at 30 µM was 11.8%.

What about the pIC50 ([3]; Homo sapiens, A2780) of the same molecule?
Its pIC50 is 5.41.

And the inhibition at 0.00152 µM ([3]; Homo sapiens, wildtype A2780, test conc. 1.52 nM, read-out: Mean Inhibition (n = 3))?
The inhibition at 0.00152 µM was 0.36%.

And the inhibition at 0.00457 µM ([3]; Homo sapiens, wildtype A2780, test conc. 4.57 nM, read-out: Mean Inhibition (n = 3))?
The inhibition at 0.00457 µM was 1.77%.

What about the inhibition at 0.01372 µM ([3]; Homo sapiens, wildtype A2780, test conc. 13.72 nM, read-out: Mean Inhibition (n = 3)) of the same molecule?
Its inhibition at 0.01372 µM is 2.98%.

And the inhibition at 0.04115 µM ([3]; Homo sapiens, wildtype A2780, test conc. 41.15 nM, read-out: Mean Inhibition (n = 3))?
The inhibition at 0.04115 µM was 5%.

And the inhibition at 0.12346 µM ([3]; Homo sapiens, wildtype A2780, test conc. 123.46 nM, read-out: Mean Inhibition (n = 3))?
The inhibition at 0.12346 µM was 12.5%.

And the inhibition at 0.37037 µM ([3]; Homo sapiens, wildtype A2780, test conc. 370.37 nM, read-out: Mean Inhibition (n = 3))?
Its inhibition at 0.37037 µM is 11.9%.

What about the inhibition at 10 µM ([3]; Homo sapiens, wildtype A2780, test conc. 10,000 nM, read-out: Mean Inhibition (n = 3)) of the same molecule?
The inhibition at 10 µM was 62.7%.

And the inhibition at 30 µM ([3]; Homo sapiens, wildtype A2780, test conc. 30,000 nM, read-out: Mean Inhibition (n = 3))?
Its inhibition at 30 µM is 70.8%.

And the “Maximum inhibition observed in wild-type A2780 cells” value [3, 4]?
Its value is 72%.

And the “Mean Inhibition (n = 3)” value ([3]; wildtype A2780, test conc. 1,111.11 nM)?
Its value is 24.63%.

What about the “Mean Inhibition (n = 3)” value ([3]; wildtype A2780, test conc. 3,333.33 nM) of the same molecule?
The value was 39.88%.
